Assays:
[1] = target: T1, Aβ42 (Homo sapiens, UniProt P05067); assay: ThT kinetic assay of Aβ42 fibril formation (unseeded); assay type: biochemical; conditions: 2 μM Aβ42; range of Netoglitazone concentrations; ThT fluorescence
T1 construct: […]; made in house; host or cells: E. coli BL21 Gold (DE3)
Excerpt: The recombinant Aβ(M1-42) peptide ([…]-SNKGAIIGLMVGGVVIA [SEQ ID NO: 1]), here called Aβ42, was expressed in the E. coli BL21 Gold (DE3) strain (Stratagene, CA, U.S.A.) and purified as described previously with slight modifications. Briefly, the purification procedure involved sonication of E. coli cells, dissolution of inclusion bodies in 8 M urea, and ion exchange in batch mode on diethylaminoethyl cellulose resin and lyophylization. The lyophilized fractions were further purified using Superdex 75 HR 26/60 column (GE Healthcare, Buckinghamshire, U.K.) and eluates were analyzed using SDS-PAGE for the presence of the desired protein product. The fractions containing the recombinant protein were combined, frozen using liquid nitrogen, and lyophilized again.
Except for Netoglitazone, which was custom synthesised by GVK BIO, all small molecules were purchased with a purity greater than 99%. Small molecules were first solubilized in 100% DMSO to a concentration of 5 mM, and then diluted in the peptide solution to reach a final DMSO concentration of maximum 1-3%. We verified that the addition of DMSO in the reaction mixture has no effect on Aβ42 aggregation.
Solutions of monomeric peptides were prepared by dissolving the lyophilized Aβ42 peptide in 6 M GuHCl. Monomeric forms were purified from potential oligomeric species and salt using a Superdex 75 10/300 GL column (GE Healthcare) at a flowrate of 0.5 mL/min, and were eluted in 20 mM sodium phosphate buffer, pH 8 supplemented with 200 μM EDTA and 0.02% NaN3. The centre of the peak was collected, and the peptide concentration was determined from the absorbance of the integrated peak area using ε280=1490 L mol^−1 cm^−1. The obtained monomer was diluted with buffer to the desired concentration and supplemented with 20 μM Thioflavin T (ThT) from a 1 mM stock. All samples were prepared in low binding Eppendorf tubes on ice using careful pipetting to avoid introduction of air bubbles. Each sample was then pipetted into multiple wells of a 96-well half-area, low-binding, clear bottom and PEG coating plate (Corning 3881), 80 μL per well. Aβ42 kinetics have been performed in the absence or the presence of Netoglitazone, Mitoglitazone, Rosiglotazone, Rivoglitazone, Pioglitazone, Ciglitazone, Englitazone, Darglitazone, Troglitazone and B alaglitazone.

[2] = target: T2, Aβ42 oligomers (Homo sapiens, UniProt P05067); assay: ELISA with oligomer-specific antibody; assay type: biochemical; conditions: 5 μM Aβ42; 5-fold excess; at half-time of aggregation of Aβ42 alone
T2 construct: […]; made in house; host or cells: E. coli BL21 Gold (DE3)
T2 sequence (P05067 671-713): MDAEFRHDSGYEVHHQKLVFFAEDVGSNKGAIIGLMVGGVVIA
Procedure: 20 μl Aliquots were taken at the t50 (i.e. half-time) from aggregation reactions of 5 μM Aβ42 in the absence and in the presence of 5-fold excess of Netoglitazone. Samples were then immobilised on a 96-well Maxisorp ELISA plate (Nunc, Roskilde, Denmark) with no shaking for 1 h at room temperature. The plate was then washed three times with 20 mM Tris pH 7.4, 100 mM NaCl and incubated in 20 mM Tris pH 7.4, 100 mM NaCl, 5% BSA under constant shaking overnight at 4° C. The day after the plate was washed six times with 20 mM Tris pH 7.4, 100 mM NaCl and then incubated with 30 μl solutions of 5 μM oligomer-specific antibody under constant shaking either for 1 hour or overnight at room temperature. At the end of this incubation, the plate was washed six times with 20 mM Tris pH 7.4, 100 mM NaCl and incubated with 30 μl solutions of Rabbit polyclonal to 6× His Tag® HRP conjugated (Abcam, Cambridge, UK) at a dilution of 1:4000 in 20 mM Tris pH 7.4, 100 mM NaCl, 5% BSA under shaking for 1 hour at room temperature. […] Finally, the amount of bound oligomer-specific antibody was quantified by using 1-Step™ Ultra TMB-ELISA Substrate Solution (ThermoFisher Scientific, Waltham, Mass., United States), according to manufacturer instructions, and measuring the absorbance at 450 nm by means of a CLARIOstar plate reader (BMG Labtech, Aylesbury, UK).

[3] = test system: GMC101 (Aβ worms); conditions: GMC101, C. elegans, in vivo
Procedure: (§1) Briefly, Netoglitazone stocks (5 mM in 100% DMSO) were used at an appropriate concentration to seed 9-cm NGM plates. Plates were then placed in a laminar flow hood at room temperature (22° C.) for up to 4 hours to dry. C. elegans cultures were then transferred onto media seeded with compound as L4 stage or Day 3 for late treatments and incubated at 24° for the whole experiment. Experiments were carried out at different Netoglitazone concentrations ranging from 0.05 to 500 μM in 1% DMSO. As controls, plates seeded only with 1% DMSO were used.

[4] = test system: control worms; conditions: C. elegans, in vivo
Procedure: as §1

[5] = test system: CL2355 (Aβ1-42Neur worms); assay: Chemotaxis assay, Aβ1-42Neur worms; assay type: in vivo, C. elegans; conditions: 5 μM; 5 days at 24° C.; day 6 of adulthood; compared to untreated worms
Procedure: Chemotaxis measurements were carried out as previously described (O. Margie, C. Palmer, I. Chin-Sang, C. elegans Chemotaxis Assay. J Vis Exp, e50069 (2013)) and as illustrated in FIG. 6C. Briefly, adult synchronized transgenic C. elegans CL2355 worms and wild-type healthy worms were incubated with or without 5 μM Netoglitazone for 5 days 24° C. At day 6 of adulthood the worms were then collected, washed with M9 buffer three times, and assayed in 9 cm screening plates (1.9% agar, 1 mM CaCl2, 1 mM MgSO4, and 25 mM phosphate buffer, pH 6.0) seeded with 50 μl of a 10× culture of Op50 Bacteria or sterile water, as attractant or test conditions, respectively and in combination with 1 μl of 1M Levamisole. Ca. 200 worms were placed in the central quadrant of the plate and incubated at 24° C. for 8 h, after which the chemotaxis index (CI) was scored. The CI was defined as follows (O. Margie et al (2013)):
(number of worms at the attractant locations−number of worms at the control locations)/total number of worms on the plate
Worms that were remaining in the central quadrant were excluded.

T1 sequence (P05067 671-713): as above

## O=C1NC(=O)C(Cc2ccc3cc(OCc4ccccc4F)ccc3c2)S1 (centres unmarked) [Netoglitazone]
[1]
  delay in Aβ42 aggregation: substantial delay
[2]
  Aβ42 oligomer concentration (ELISA): significant reduction
[3]
  maximum tolerable dose: less than 50 μM
[4]
  maximum tolerable dose: < 500 µM
[5]
  chemotaxis index: significantly improved
